Test results published in patent publication US20140079836A1, “METHODS AND COMPOSITIONS FOR ALTERING HEALTH, WELLBEING, AND LIFESPAN” (LifeSpan Extension, LLC, priority 2008, published 2014).
Values joined by “and” are separate entries in the source; they are usually repeats but may differ in a detail not shown here. Equal entries are not always repeated.

Test system: entire human genome (gene expression profile)
Assay: Agilent whole human genome array, skin fibroblasts AG07999, antioxidant with or without UV
Format: cell-based
Method: Cell cultures: A human skin fibroblast cell culture was obtained through the Coriell Cell Repository from the National Institute on Aging Cell Repository. […] Culture media: Cells were grown in Minimal Essential Medium supplemented with 10% fetal bovine serum, 2 mM L-glutamine, 2 mM Glutamax I. […] All cultures were incubated at 37° C. with 5% CO2 in a humidified chamber. […] On Day 5 after 24 hours of exposure to test conditions, the cells were isolated and the RNA isolated using the RT^2q PCR-grade RNA isolation kit (Superarray Bioscience Corporation). […] Analysis of Agilent Whole Human Genome Arrays: RNA taken from both samples was sent to Cogenics, Inc. Morrisville, N.C. Cogenics, Inc. is a leading, state-of-the-art, microarray service provider that facilitates and accelerates transcriptome profiling and gene discovery processes for industrial and academic researchers. Cogenics' procedure for processing samples is as follows: RNA samples are received and analyzed by Cogenics, Inc. using rigorous standardized procedures that are designed to ensure quality and chain of custody. Each sample undergoes a thorough quality analysis using an Agilent Bioanalyzer microfluidics device, and is precisely quantified using a Nanodrop-1000 spectro-photometer. When the Agilent Oligonucleotide Microarray Platform is utilized, samples are fluorescently labeled using the Agilent Low-Input Linear Amplification Kit. Upon completion of this process, the labeled cRNA products are assessed using the same processes described above. These labeled samples are then fragmented and hybridized to oligonucleotide microarrays. The microarrays are washed and then scanned using an Agilent DNA Microarray Scanner with Sure Scan technology. Data is extracted from the images produced by the scanner using Agilent's Feature Extraction software. At this point, the scanned image is visually inspected for defects, and the extracted data is statistically analyzed to ensure quality of the assay. Extracted data and images can be loaded into Rosetta Resolver Gene Expression Data Analysis System for in-depth analysis, both from a quality standpoint, as well as to develop biological understanding. […] A table was generated and provided as a tab-delimited text file. This file will contain the log ratio, fold-change, log ratio p-value, etc. for every transcript measured by the microarray. Using Rosetta Resolver, a single ratio comparison was compiled based on the results of the two fluorophore reversal hybridization performed in the context of this project. The ratios were calculated such that the Tx sample was in the numerator and the UnTx sample was in the denominator. A table was generated, saved as tab-delimited text files, and is provided on the DVD that accompanied this report in the “Objective—1” subdirectory or the “Data_Analysis” directory. These files contain the log ratio, fold-change, log ratio p-value, etc. for every transcript present on the microarray. […] A table for will be generated and provided as a tab-delimited text file. The file will contain the log ratio, fold-change, log ratio p-value, etc. for only the differentially expressed transcripts within the context of the comparison. […] These criteria were applied to the comparison made in Objective 1. A table was generated, saved as tab-delimited text files, and is provided on the DVD that accompanied this report in the “Objective—1” subdirectory or the “Data_Analysis” directory. […] Cell cultures: A human skin fibroblast cell culture (or cultures) will be obtained through the Coriell Cell Repository from the National Institute on Aging Cell Repository. […] Culture media: Cells will be grown in Minimal Essential Medium supplemented with 10% fetal bovine serum, 2 mM L-glutamine, 2 mM Glutamax I.

COC1=C(OC)C(=O)C(CCCCCCCCCCO)=C(C)C1=O [Idebenone, 6-(10-hydroxydecyl)-2,3-dimethoxy-5-methyl-1,4-benzoquin-one]
fold change of gene expression (sequence name in c0), Idebenone + UVB: n.s.
ABL1 Expression (Alone): 1.0
ACE Expression (Alone): −1.0
ACTB Expression (Alone): 1.1 and 1.0
AK3 Expression (Alone): 1.0
ALDOA Expression (Alone): 1.0
ANKRD17 Expression (Alone): −1.0
APEX1 Expression (Alone): 1.2
APEX2 Expression (Alone): −1.1
APOE Expression (Alone): 1.0
ATF2 Expression (Alone): 1.1
ATIC Expression (Alone): 1.0
ATM Expression (Alone): 1.2
ATR Expression (Alone): 1.2
ATRX Expression (Alone): 1.0
ATXN3 Expression (Alone): −1.1
B2M Expression (Alone): −1.0
BARD1 Expression (Alone): 1.4
BAX Expression (Alone): 1.3
BCL2 Expression (Alone): 1.0
BLM Expression (Alone): 1.0
BPNT1 Expression (Alone): −1.2
BRCA1 Expression (Alone): −1.0
BRCA2 Expression (Alone): 1.1
BRIP1 Expression (Alone): 1.0
BTG2 Expression (Alone): 1.0
CASP2 Expression (Alone): 1.0
CASP9 Expression (Alone): −1.0
CCNH Expression (Alone): −1.1
CDA Expression (Alone): −1.5
CDK7 Expression (Alone): 1.0
CDKN1A Expression (Alone): 1.2
CDKN2A Expression (Alone): 1.0
CETN2 Expression (Alone): 1.1
CHEK1 Expression (Alone): −1.5
CHEK2 Expression (Alone): 1.1
CHUK Expression (Alone): 1.0
CIB1 Expression (Alone): 1.0
CIDEA Expression (Alone): 1.3
CIDEB Expression (Alone): −1.2
CLK1 Expression (Alone): 1.0
CREBBP Expression (Alone): −1.0
CRY1 Expression (Alone): 1.0
CRY2 Expression (Alone): −1.1
CSF2 Expression (Alone): 2.4
CTPS Expression (Alone): 1.0
CYP19A1 Expression (Alone): 1.4
DCLRE1C Expression (Alone): 1.0
DDB1 Expression (Alone): 1.9
DDB2 Expression (Alone): 1.0
DDC Expression (Alone): 1.0
DDIT3 Expression (Alone): 1.1
DHFR Expression (Alone): 1.0
DKC1 Expression (Alone): 1.0
DMC1 Expression (Alone): 1.1
DPYS Expression (Alone): 1.1
DUT Expression (Alone): 1.5
E2F1 Expression (Alone): −1.5
E2F2 Expression (Alone): −1.1
E2F3 Expression (Alone): −1.5
ENTPD4 Expression (Alone): 1.1
ERCC1 Expression (Alone): 1.2
ERCC2 Expression (Alone): 1.0
ERCC3 Expression (Alone): −1.0
ERCC4 Expression (Alone): −1.1
ERCC5 Expression (Alone): 1.0
ERCC6 Expression (Alone): 1.4
ERCC8 Expression (Alone): −1.1
ERH Expression (Alone): 1.0
EXO1 Expression (Alone): 1.1
FANCA Expression (Alone): 1.0
FANCC Expression (Alone): −1.0
FANCF Expression (Alone): −1.1
FANCG Expression (Alone): 1.1
FEN1 Expression (Alone): −1.0
FPGS Expression (Alone): 1.2
GADD45A Expression (Alone): −1.1
GADD45G Expression (Alone): 1.0
GAPDH Expression (Alone): −1.1
GDA Expression (Alone): 1.0
GH1 Expression (Alone): 1.0
GML Expression (Alone): −1.3
GMPR Expression (Alone): 1.0
GTF2H1 Expression (Alone): 1.1
GTF2H2 Expression (Alone): −1.2
GTF2H3 Expression (Alone): 1.0
GTF2H4 Expression (Alone): −1.4
GTSE1 Expression (Alone): −1.1
HK1 Expression (Alone): −1.1
HLA-DRA Expression (Alone): 1.0
HPRT1 Expression (Alone): 1.2 and 1.1
HSP90AB1 Expression (Alone): 1.1
HSPA1A Expression (Alone): 1.4
HSPA1L Expression (Alone): 1.0
HTRA1 Expression (Alone): 1.1
HUS1 Expression (Alone): 1.0
IFI44 expression (Alone): −1.6
IGF1 Expression (Alone): 1.0
IGF2 Expression (Alone): 1.0
IGHMBP2 Expression (Alone): 1.1
IHPK3 Expression (Alone): 1.1
IL1A Expression (Alone): −1.0
IL6 Expression (Alone): −1.0
IL10 Expression (Alone): 1.1
INPPL1 Expression (Alone): −1.2
JUN Expression (Alone): 1.0
KRAS Expression (Alone): −1.2
LIG1 Expression (Alone): 1.0
LIG3 Expression (Alone): 1.0
LIG4 Expression (Alone): 1.0
LTA Expression (Alone): −1.1
MAP2K6 Expression (Alone): 1.0
MAPK8 Expression (Alone): −1.3
MAPK9 Expression (Alone): −1.0
MAPK12 Expression (Alone): −1.0
MAPK14 Expression (Alone): 1.0
MAPKAPK2 Expression (Alone): −1.4
MAX Expression (Alone): −1.0
MBD4 Expression (Alone): 1.0
MCM2 Expression (Alone): 1.4
MDH1 Expression (Alone): 1.0
MGMT Expression (Alone): −1.3
MKI67 Expression (Alone): 1.4
MLH1 Expression (Alone): 1.0
MLH3 Expression (Alone): 1.0
MMP1 Expression (Alone): −1.4
MMP2 Expression (Alone): −1.1
MMP3 Expression (Alone): 2.3
MMP7 Expression (Alone): −1.6
MMP10 Expression (Alone): 1.0
MMP11 Expression (Alone): 1.1
MMP12 Expression (Alone): 1.7
MMP13 Expression (Alone): 1.0
MMP14 Expression (Alone): −1.1
MMP15 Expression (Alone): −1.0
MNAT1 Expression (Alone): 1.0
MPG Expression (Alone): 1.0
MRE11A Expression (Alone): 1.2
MSH2 Expression (Alone): 1.0
MSH3 Expression (Alone): 1.1
MSH4 Expression (Alone): 1.0
MSH6 Expression (Alone): 1.0
MSRA Expression (Alone): −1.0
MT2A Expression (Alone): −1.3
MTAP Expression (Alone): 1.1
MUTYH Expression (Alone): −1.0
MVK Expression (Alone): 1.6
MYBL2 Expression (Alone): 1.4
MYCBP Expression (Alone): −1.0
N4BP2 Expression (Alone): 1.1
NADSYN1 expression (Alone): 1.2
NBN Expression (Alone): −1.2
NCK1 Expression (Alone): 1.0
NEIL1 Expression (Alone): 1.5
NEIL2 Expression (Alone): 1.2
NEIL3 Expression (Alone): −1.0
NF1 Expression (Alone): −1.1
NFKB1 expression (Alone): −1.5
NFKBIA Expression (Alone): 1.0
NGFR Expression (Alone): 1.0
NOS2A Expression (Alone): 1.0
NP Expression (Alone): −1.2
NR1D1 Expression (Alone): −1.6
NRG1 Expression (Alone): 1.1
NTHL1 Expression (Alone): 1.1
NUDT1 Expression (Alone): 1.3
NUDT2 Expression (Alone): −1.0
OAS1 Expression (Alone): 1.3
OAS2 Expression (Alone): 1.2
OAS3 Expression (Alone): 1.0
OGG1 Expression (Alone): −1.3
PAK1 Expression (Alone): −1.0
PAPSS1 Expression (Alone): −1.0
PAPSS2 Expression (Alone): −1.0
PARP1 Expression (Alone): 1.3 and 1.2
PARP2 Expression (Alone): 1.3
PCNA Expression (Alone): −1.0
PDZK1IP1 Expression (Alone): 1.0
PITRM1 Expression (Alone): −1.1
PKM2 Expression (Alone): −1.1
PLAT Expression (Alone): −1.1
PLAU Expression (Alone): −1.6
PLAUR Expression (Alone): −1.1
PLK1 Expression (Alone): 1.3
POLA2 Expression (Alone): 1.0
PPARG Expression (Alone): −1.0
PPIE Expression (Alone): 1.1
PRDX6 Expression (Alone): −1.5
PSMA2 Expression (Alone): 1.1
PSMA3 Expression (Alone): 1.1
PSMC6 Expression (Alone): 1.0
PSMD1 Expression (Alone): −1.0
PSMD11 Expression (Alone): 1.1
PSMD12 Expression (Alone): 1.0
PTGS1 Expression (Alone): 1.2
RAF1 Expression (Alone): −1.0
RB1 Expression (Alone): −1.5
RET Expression (Alone): −1.0
RORA Expression (Alone): −1.2
RPL3 Expression (Alone): 1.0
RPL13A Expression (Alone): −1.0
RPS9 Expression (Alone): 1.2
RPS10 Expression (Alone): 1.0
RRAS Expression (Alone): −1.1
RRM1 Expression (Alone): −1.0
S100A7 Expression (Alone): 2.7
S100A8 Expression (Alone): 1.0
S100A10 Expression (Alone): −1.7
S100A11 Expression (Alone): −1.1
SDS Expression (Alone): −2.0
SERPINB2 Expression (Alone): −2.9
SERPINE1 Expression (Alone): −1.4
SHC1 Expression (Alone): 1.2 and 1.0
SIRT1 Expression (Alone): −1.2
SLK Expression (Alone): −1.0
SMAD1 Expression (Alone): 1.2
SNCG Expression (Alone): 1.4
SOD1 Expression (Alone): −1.0
SOD2 Expression (Alone): 1.1 and 1.0
SPARC Expression (Alone): −1.2
SPP1 Expression (Alone): −2.7
SPRR1B Expression (Alone): 1.0
SRI Expression (Alone): −1.0
STAT5A Expression (Alone): −1.0
